Consider two molecules from patent US10301630B2, “Methods and compositions for unsilencing imprinted genes” (The University of North Carolina at Chapel Hill, priority 2010, dated 2019).

Read-outs that look alike come from different tables or passages of the source.

Holding throughout (format): cell-based, mouse
In series [1] the test system is paternal Ube3a-YFP allele. The series is described as follows: High-content imaging of paternal Ube3a-YFP unsilencing in primary cortical neurons. The conditions noted are these: for EC50 / EC20 / maximal fold induction: Mus musculus; for EC20: Table 3, unsilencing the paternal allele of Ube3a-YFP in cultured neurons, 1 nM to 30 μM, read-out: Potency EC20; for unsilencing of paternal Ube3a-YFP in dose-response experiments: cultured Ube3a m+/pYFP neurons. The protocol: In all screening assays, primary cortical neurons from Ube3a-YFP mice are isolated from embryonic day 15.5 animals, and the genotype of animals is determined to identify mice that encode the Ube3a-YFP transgene on the paternal allele. Freshly isolated cortical neurons are seeded into 384 well plates and cultured for 7 days. At day in vitro seven, screening is performed using multiple chemical libraries and compound concentration of 10 μM in 0.2% DMSO vehicle. After 72 h of drug exposure (run in quadruplicate wells), neurons are fixed with 4% para formaldehyde and processed for immunofluorescence using an anti-GFP-Alexa 488 conjugated antibody to enhance the signal of Ube3a-YFP in neurons. For image analyses, individual wells of immunofluorescence-processed plates are imaged fro DAPI and GFP fluorescence using the BD-Pathway 855 high-content imaging microscope. Ube3a-YFP fluorescence intensities in individual neurons are determined in drug-treated wells and normalized to 0.2% DMSO-treated (i.e., vehicle control) wells using custom written macros and algorithms using NIH Image J and Arrayscan Cell Profiler software programs. These image analyses enable masking of nuclei in individual neurons and determination of Ube3a-YFP fluorescence intensity in the nuclei of individual neurons.
For these studies, DIV 7 primary neurons encoding paternal Ube3a-YFP are dose treated with hit compounds across seven orders of magnitude in full and half log molar concentrations (3 pM to 30 μM). Ube3a-YFP fluorescence intensities in living neurons are determined again by high-content imaging microscopy after 72 h treatments. The dose response results are analyzed by least squares sigmoidal dose-response curve fitting models using Graphpad Prism 5.0 (Graphpad Software, Inc.). The calculated EC50 values (potencies) and Y value top plateau (estimated efficacies or Emax) enable comparative analyses of the relative potency and efficacy of the identified compounds.
Primary cortical neurons were isolated from E13.5-16.5 Ube3a-YFP mice. Screening was performed in quadruplicate at DIV7 using multiple chemical libraries and a compound concentration of 10 μM in 0.2% DMSO vehicle. After 72 h of drug exposure, neurons were fixed with 4% paraformaldehyde in PBS for 35 min, permeabilized with 0.3% Triton X-100 in PBS on ice for 30 min, and blocked by 5% goat serum with 0.1% Triton X-100 in PBS at room temperature for 1 hr. Cells were incubated with a rabbit polyclonal antibody to GFP (1:1000, Novus Biologicals, NB600-308) at room temperature for 1 hr and then incubated with Alexa Fluor 488 goat antibody to rabbit IgG (1:200, Invitrogen, A11008) and DAPI (1:10,000, Invitrogen, D-1306) at room temperature for 30 min. Individual wells of immunofluorescence-processed plates were imaged for DAPI or Alexa 488 fluorescence using the BD Pathway 855 high-content imaging microscope with a 488 excitation/515 long pass filter. Antibody-enhanced UBE3A-YFP fluorescence intensities were determined from individual neurons in drug-treated wells and normalized to neurons in wells treated with 0.2% DMSO (vehicle control). Analyses were performed with custom macros and algorithms using NIH Image J and Arrayscan Cell Profiler software programs (Thermo Scientific/Cellomics). These image analyses enabled masking of nuclei in individual neurons and determination of UBE3A-YFP fluorescence intensities in the nuclei of individual neurons (FIG. 16).
DIV7 primary neurons from Ube3a^m+/pYFP mice were dose-treated for 72 h with topoisomerase I and II inhibitors in ten point dose-responses in full and half log molar concentrations (1 nM to 30 μM). Neurons were fixed, processed for immunofluorescence, and UBE3A-YFP fluorescence intensities were again determined by high-content imaging microscopy.

For a further series, the system named is paternal Ube3a-YFP mRNA. The series is described as follows: Real-time PCR of Ube3a-YFP transcript in cortical neurons. The conditions noted are these: 10 μM for 72 h. An excerpt:
Total mRNA was isolated by guanidinium thiocyanate-phenol-chloroform extraction using the Trizol reagent (Invitrogen Inc.). Total mRNAs from samples were converted into cDNA and subjected to real-time PCR (RT-PCR) analyses to quantify Ube3a-YFP transcript levels using oliognucleotide primers against Ube3a (Forward sequence: [NT] (SEQ ID NO:1); reverse sequence: [NT] (SEQ ID NO:2)) and total transcript reads were normalized to Oaz1 (Forward sequence: [NT] (SEQ ID NO:3); reverse sequence: [NT] (SEQ ID NO:4)).
In general terms: In qPCR the cycle at which signal appears reflects the starting amount.

The test system of the next series is cultured neurons. Briefly: Neuron health / cell death in treated cultures.
The test system of series [2] is Ube3a, Ube3a-ATS, Snrpn mRNA. The series is described as follows: Quantitative PCR of Ube3a, Ube3a-ATS and Snrpn in Ube3a m-/p+ neurons. Particulars: 300 nM, cultured neurons from Ube3a m−/p+ mice. The protocol:
First strand cDNA synthesis was performed on 500 ng-2 μg total RNA using Superscript III reverse transcriptase (Invitrogen) primed with random hexamers. qPCR reactions used SYBR green (Invitrogen) and were run on a Rotorgene 3000 (Corbett Research). Standard curves and Ct-values were generated using Rotorgene analysis software version 6.0. Expression of Ube3a, Ube3a-ATS, Ipw and Snrpn were determined after normalization of each cDNA sample to expression levels of the housekeeping genes Rp122 and Actb.

[3] abbreviates: Cortical neurone, Table 1, unsilencing paternal Ube3a-YFP, cortical neurons, 72 h, read-out: EC50.
Where [4] appears, read: Primary cortical neuron, concentration-response curves, 72 hr, n=4, mean±SEM, read-out: EC50 for unsilencing paternal Ube3a-YFP (FIG. 7).

What is called EC50 is the concentration needed to bring the measured effect to its halfway point. Usually EC20 stands for the concentration at which the effect reaches the 20% level. With `CCc1c2c(nc3ccc(OC(=O)N4CCC(N5CCCCC5)CC4)cc13)-c1cc3c(c(=O)n1C2)COC(=O)[C@]3(O)CC` [Irinotecan], the “unsilencing of paternal Ube3a-YFP in the primary screen” value in series [1] (10 μM for 72 hours, Ube3a m+/pYFP neurons) was “upregulated UBE3A-YFP fluorescence”. Further, the EC50 in series [1] (setting [3]) came out at 994 ± 10 nM; in series [1] (setting [4]), 996 ± 10 nM. Further, the EC20 in series [1] (Neuron, 72 h) came to 994 ± 13 nM. Besides, in series [1] (72 h), the “unsilencing of paternal Ube3a-YFP in dose-response experiments” value was “upregulate paternal UBE3A-YFP in a dose- and time-dependent manner”. In the series with paternal Ube3a-YFP mRNA, the “paternal Ube3a-YFP mRNA level (RT-PCR)” value is listed as “significantly increased the level of paternal Ube3a-YFP mRNA”. Further, the “neuron density and health (DAPI counterstain)” value in the series with cultured neurons (10 μM for 72 hr) is “Neuron density and health is similar”. In the series on cultured neurons (effective concentrations, cultures), the “pyknotic nuclei versus vehicle” value is “a similar number of pyknotic nuclei”.

On to `CC[C@@]1(O)C(=O)OCc2c1cc1n(c2=O)Cc2cc3c(CN(C)C)c(O)ccc3nc2-1` [Topotecan], for which the maximal fold induction in series [1] (Cortical neurone, 72 h, read-out: Efficacy Emax (fold over control)) was found to be 2.25 ± 0.07; in series [1] (Neuron, 72 h, read-out: Efficacy Emax (fold over vehicle)), 2.25 ± 0.05. Moreover, the EC50 stood at 54 ± 1.2 nM in series [1] (setting [3]) and 55 ± 1.2 nM in series [1] (setting [4]). In addition, the EC20 in series [1] (Neuron, 72 h) amounted to 54 ± 3.4 nM. Further, the “unsilencing of paternal Ube3a-YFP in dose-response experiments” value in series [1] (72 h) is “upregulate paternal UBE3A-YFP in a dose- and time-dependent manner”. Also, the “relative potency versus irinotecan (FIG. 7)” value in series [1] (unsilencing paternal Ube3a-YFP) is given as ~20 times. The “relative potency versus irinotecan (Example 16)” value in series [1] (upregulation of paternal UBE3A-YFP in cultured neurons) turned out to be 20 ×. For the same molecule, in series [2], the “Ube3a mRNA expression” value is given as “upregulated expression of Ube3a”. Also, the “Ube3a-ATS and Snrpn mRNA expression” value in series [2] is “downregulating expression of Ube3a-ATS and Snrpn”.
